Among the data in patent publication US9266878B2, “Phosphatidylinositol 3-kinase inhibitors” (Gilead Calistoga LLC, priority 2012, dated 2016) are IC50 values, retold here.

Holding throughout (assay): Enzymatic activity of PI3K isoforms, TR-FRET assay (PIP3 formation)
Holding throughout (assay type): biochemical
A general note: In TR-FRET formats the signal depends on donor and acceptor labels being close together.

One experiment has as its target PI3Kδ (Homo sapiens (Human), UniProt O00329). To be noted: bound given in nM. The method, boiled down: (§1)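 Heterodimeric recombinant class I PI3K; PIP3 product displaces labeled PIP3 from GRP-1 PH domain, lowering TR-FRET. Reaction 30 min at 25° C, stopped with 10 mM EDTA, 10 nM labeled-PIP3, 35 nM Eu-GRP-1. Read Ex 340 nm, Em 615/665 nm; IC50 in nM.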
Another experiment addresses PI3Kα (Homo sapiens (Human), UniProt P42336). The method, boiled down: as §1
Another experiment addresses PI3Kβ (Homo sapiens (Human), UniProt P42338). The method, boiled down:
(§2)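 Recombinant heterodimeric class I PI3K enzymes were assayed by TR-FRET. PIP3 product displaces fluorescently labelled PIP3 from the GRP-1 PH domain, lowering the signal; IC50 values are given in nM.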

Another experiment addresses PI3Kγ (Homo sapiens (Human), UniProt P48736). The method, boiled down:
as §2

Chain of PI3Kγ (P48736 whole entry): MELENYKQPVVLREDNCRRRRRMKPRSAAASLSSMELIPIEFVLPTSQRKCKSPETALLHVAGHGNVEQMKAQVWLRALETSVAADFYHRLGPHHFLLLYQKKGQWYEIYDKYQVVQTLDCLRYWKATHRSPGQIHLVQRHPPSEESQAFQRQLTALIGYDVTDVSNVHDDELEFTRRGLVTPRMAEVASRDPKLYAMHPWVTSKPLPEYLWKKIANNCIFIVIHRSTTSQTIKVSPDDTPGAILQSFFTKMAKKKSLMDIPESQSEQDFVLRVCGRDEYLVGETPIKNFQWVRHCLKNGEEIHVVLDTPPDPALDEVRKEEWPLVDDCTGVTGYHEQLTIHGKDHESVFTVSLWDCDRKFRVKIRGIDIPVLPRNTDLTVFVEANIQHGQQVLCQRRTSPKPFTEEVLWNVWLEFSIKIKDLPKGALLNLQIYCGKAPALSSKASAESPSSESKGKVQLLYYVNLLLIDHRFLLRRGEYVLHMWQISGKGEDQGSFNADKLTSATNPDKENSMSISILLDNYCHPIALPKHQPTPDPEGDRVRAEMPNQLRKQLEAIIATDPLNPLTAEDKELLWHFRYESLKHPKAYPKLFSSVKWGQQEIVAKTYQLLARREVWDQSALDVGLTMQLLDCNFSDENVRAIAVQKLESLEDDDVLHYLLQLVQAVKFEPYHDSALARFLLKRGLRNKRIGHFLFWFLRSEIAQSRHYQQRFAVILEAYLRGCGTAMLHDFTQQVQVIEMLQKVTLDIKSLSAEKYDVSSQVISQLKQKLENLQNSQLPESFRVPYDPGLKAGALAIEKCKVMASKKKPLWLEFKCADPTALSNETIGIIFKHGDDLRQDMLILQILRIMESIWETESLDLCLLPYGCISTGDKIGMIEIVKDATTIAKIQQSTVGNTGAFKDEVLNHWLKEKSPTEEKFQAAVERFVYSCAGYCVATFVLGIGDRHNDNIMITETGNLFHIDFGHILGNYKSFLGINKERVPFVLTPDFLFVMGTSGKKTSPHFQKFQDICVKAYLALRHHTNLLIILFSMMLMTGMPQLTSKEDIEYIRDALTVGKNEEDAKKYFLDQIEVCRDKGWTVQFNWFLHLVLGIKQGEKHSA
Chain of PI3Kγ (Q8WYR1 whole entry partner): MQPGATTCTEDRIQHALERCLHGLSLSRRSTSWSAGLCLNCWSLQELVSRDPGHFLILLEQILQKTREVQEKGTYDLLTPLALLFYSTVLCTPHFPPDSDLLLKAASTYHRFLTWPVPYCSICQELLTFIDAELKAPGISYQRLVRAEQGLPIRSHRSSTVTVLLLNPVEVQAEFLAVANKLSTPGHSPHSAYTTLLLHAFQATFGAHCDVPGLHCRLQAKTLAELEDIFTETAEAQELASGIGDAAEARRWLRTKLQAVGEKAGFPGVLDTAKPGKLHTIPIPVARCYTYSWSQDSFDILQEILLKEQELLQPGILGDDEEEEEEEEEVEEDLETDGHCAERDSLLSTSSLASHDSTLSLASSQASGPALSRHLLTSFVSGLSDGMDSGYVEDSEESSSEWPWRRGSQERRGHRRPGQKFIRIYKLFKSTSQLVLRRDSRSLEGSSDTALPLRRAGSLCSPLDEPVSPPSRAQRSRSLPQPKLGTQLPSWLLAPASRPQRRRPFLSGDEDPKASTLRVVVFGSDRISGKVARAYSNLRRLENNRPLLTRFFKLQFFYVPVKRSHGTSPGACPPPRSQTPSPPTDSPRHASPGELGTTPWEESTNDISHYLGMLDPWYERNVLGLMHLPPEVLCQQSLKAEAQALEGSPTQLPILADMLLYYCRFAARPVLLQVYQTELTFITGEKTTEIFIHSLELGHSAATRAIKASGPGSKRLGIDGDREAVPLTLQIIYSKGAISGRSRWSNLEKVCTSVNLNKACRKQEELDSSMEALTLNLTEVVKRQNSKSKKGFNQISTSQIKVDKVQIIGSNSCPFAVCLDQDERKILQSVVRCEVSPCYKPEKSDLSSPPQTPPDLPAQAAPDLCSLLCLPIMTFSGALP
Chain of PI3Kα (P42336 whole entry): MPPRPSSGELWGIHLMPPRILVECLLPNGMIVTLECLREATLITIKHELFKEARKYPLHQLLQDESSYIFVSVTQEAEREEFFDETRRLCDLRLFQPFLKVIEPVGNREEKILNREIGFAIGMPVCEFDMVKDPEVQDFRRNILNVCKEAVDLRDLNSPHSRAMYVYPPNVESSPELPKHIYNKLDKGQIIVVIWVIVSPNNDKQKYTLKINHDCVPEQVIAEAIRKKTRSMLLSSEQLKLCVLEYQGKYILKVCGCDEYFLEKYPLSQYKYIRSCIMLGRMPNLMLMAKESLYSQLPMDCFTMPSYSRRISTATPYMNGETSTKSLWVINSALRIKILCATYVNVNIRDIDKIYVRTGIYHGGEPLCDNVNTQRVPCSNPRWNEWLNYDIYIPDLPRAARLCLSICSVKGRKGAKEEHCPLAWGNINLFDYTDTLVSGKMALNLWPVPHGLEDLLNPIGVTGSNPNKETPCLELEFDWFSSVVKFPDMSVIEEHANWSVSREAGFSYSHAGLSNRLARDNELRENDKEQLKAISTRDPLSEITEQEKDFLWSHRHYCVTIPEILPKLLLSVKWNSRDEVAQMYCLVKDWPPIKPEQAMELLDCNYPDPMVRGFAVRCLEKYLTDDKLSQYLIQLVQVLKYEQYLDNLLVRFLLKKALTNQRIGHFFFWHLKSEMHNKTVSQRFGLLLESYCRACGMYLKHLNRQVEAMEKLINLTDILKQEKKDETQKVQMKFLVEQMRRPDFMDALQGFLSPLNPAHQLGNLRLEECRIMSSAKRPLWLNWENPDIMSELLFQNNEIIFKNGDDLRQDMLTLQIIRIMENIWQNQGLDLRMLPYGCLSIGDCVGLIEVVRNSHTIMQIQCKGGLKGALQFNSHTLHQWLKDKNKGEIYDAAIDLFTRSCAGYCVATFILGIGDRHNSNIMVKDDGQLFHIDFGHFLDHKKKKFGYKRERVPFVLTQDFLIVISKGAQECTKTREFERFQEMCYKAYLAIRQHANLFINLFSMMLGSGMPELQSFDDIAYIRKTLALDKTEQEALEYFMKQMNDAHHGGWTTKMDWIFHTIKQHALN
Chain of PI3Kα (P27986 whole entry partner): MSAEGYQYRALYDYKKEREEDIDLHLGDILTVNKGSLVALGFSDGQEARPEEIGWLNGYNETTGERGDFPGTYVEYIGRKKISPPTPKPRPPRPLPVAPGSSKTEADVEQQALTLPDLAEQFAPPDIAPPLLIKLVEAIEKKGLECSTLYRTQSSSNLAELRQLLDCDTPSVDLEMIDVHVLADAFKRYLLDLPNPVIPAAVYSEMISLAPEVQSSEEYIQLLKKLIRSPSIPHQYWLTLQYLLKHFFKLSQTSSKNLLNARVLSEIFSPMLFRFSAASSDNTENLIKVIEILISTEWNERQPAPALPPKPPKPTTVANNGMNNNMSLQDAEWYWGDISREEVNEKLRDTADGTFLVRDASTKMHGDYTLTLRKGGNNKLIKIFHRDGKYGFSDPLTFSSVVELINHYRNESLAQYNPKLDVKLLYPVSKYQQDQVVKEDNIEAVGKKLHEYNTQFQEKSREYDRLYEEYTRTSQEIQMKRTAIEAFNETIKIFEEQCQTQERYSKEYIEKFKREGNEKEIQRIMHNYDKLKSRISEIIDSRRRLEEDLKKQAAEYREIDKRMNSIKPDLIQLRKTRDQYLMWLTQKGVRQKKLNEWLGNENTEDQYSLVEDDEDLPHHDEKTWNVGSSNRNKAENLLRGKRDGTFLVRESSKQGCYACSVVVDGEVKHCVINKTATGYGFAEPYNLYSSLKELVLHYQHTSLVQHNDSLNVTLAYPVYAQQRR
Chain of PI3Kδ (O00329 whole entry, the tested form may be a part): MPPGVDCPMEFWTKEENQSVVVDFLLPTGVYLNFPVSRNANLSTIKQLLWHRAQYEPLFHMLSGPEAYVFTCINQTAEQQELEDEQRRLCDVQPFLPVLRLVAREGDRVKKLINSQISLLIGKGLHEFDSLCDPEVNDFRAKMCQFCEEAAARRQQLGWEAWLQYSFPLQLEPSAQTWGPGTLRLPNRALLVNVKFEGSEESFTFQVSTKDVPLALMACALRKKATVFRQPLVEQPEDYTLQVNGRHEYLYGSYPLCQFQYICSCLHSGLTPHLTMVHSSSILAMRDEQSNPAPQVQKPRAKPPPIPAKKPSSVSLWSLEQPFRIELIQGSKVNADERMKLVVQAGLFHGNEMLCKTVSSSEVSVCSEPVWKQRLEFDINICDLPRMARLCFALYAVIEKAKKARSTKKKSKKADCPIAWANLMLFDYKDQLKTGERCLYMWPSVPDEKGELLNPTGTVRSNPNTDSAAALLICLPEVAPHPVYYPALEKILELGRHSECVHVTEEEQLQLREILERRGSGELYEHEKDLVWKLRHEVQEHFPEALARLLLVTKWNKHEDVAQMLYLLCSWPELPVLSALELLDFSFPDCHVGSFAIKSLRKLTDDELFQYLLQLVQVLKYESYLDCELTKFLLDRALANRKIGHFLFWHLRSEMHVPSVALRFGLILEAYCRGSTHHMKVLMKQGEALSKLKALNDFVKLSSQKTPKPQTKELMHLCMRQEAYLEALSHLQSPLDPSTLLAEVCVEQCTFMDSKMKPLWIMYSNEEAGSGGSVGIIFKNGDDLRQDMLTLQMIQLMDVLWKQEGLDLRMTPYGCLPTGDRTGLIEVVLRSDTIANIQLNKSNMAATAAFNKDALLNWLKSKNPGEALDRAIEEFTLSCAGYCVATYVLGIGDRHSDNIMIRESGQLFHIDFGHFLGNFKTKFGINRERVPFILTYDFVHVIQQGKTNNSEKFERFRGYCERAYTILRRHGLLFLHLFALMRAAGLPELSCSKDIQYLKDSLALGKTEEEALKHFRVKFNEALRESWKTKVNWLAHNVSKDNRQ
Chain of PI3Kδ (P27986 whole entry partner, the tested form may be a part): as the sequence (P27986 whole entry partner) above

As a reminder, the IC50 is the midpoint of a concentration-inhibition curve. A lower IC50 goes with higher potency. As for `C[C@H](Nc1ncnc(N)c1C#Cc1ccc(F)cn1)c1nc2ccc(F)cc2c(=O)n1-c1cccc(C#N)c1` [Compound 94a, (S)-3-(2-(1-((6-amino-5-((5-fluoropyridin-2-yl)ethynyl)pyrimidin-4-yl)amino)ethyl)-6-fluoro-4-oxoquinazolin-3(4H)-yl)benzonitrile], the IC50 is < 100 nM against PI3Kδ, > 1 µM on PI3Kα (bound given in uM), > 1 µM against PI3Kβ (bound given in uM) and > 1 µM against PI3Kγ (bound given in uM).
Regarding `C[C@H](Nc1ncnc(N)c1C#Cc1ccc(N)cn1)c1nc2cccc(Cl)c2c(=O)n1-c1ccccc1` [Compound 35a, (S)-2-(1-(6-amino-5-((5-aminopyridin-2-yl)ethynyl)pyrimidin-4-ylamino)ethyl)-5-chloro-3-phenylquinazolin-4(3H)-one], the concentration for half-maximal inhibition (IC50) against PI3Kδ is < 100 nM; at PI3Kα (bound given in nM), < 0.1 µM; on PI3Kβ (bound given in nM), < 0.1 µM; at PI3Kγ (bound given in nM), < 0.1 µM.
Consider `COC[C@@H](Nc1ncnc(N)c1C#Cc1ccc(F)cn1)c1nc2cccc(Cl)c2c(=O)n1-c1cc(F)cc(F)c1` [146b], for which the IC50 was < 100 nM on PI3Kδ, > 1 µM against PI3Kα (bound given in uM), > 1 µM on PI3Kβ (bound given in uM) and > 1 µM against PI3Kγ (bound given in uM).
With `C[C@H](Nc1ncnc(N)c1C#CC1CCCCC1)c1nc2cccc(Cl)c2c(=O)n1-c1ccccc1` [Compound 145a, (S)-2-(1-((6-amino-5-(cyclohexylethynyl)pyrimidin-4-yl)amino)ethyl)-5-chloro-3-phenylquinazolin-4(3H)-one], the IC50 against PI3Kδ was < 100 nM; against PI3Kα (bound given in uM), > 1 µM; against PI3Kβ (bound given in uM), > 1 µM; at PI3Kγ (bound given in uM), > 1 µM.
As for `CCc1cccc(-n2c([C@H](C)Nc3ncnc(N)c3C#Cc3ccc(F)cn3)nc3cccc(Cl)c3c2=O)c1` [Compound 61a, (S)-2-(1-((6-amino-5-((5-fluoropyridin-2-yl)ethynyl)pyrimidin-4-yl)amino)ethyl)-5-chloro-3-(3-ethylphenyl)quinazolin-4(3H)-one], the IC50 is < 100 nM at PI3Kδ, > 1 µM on PI3Kα (bound given in uM), > 1 µM against PI3Kβ (bound given in uM) and > 1 µM against PI3Kγ (bound given in uM).
Consider `C[C@H](Nc1ncnc(N)c1C#Cc1ccc(F)cn1)c1nc2ccc(F)cc2c(=O)n1-c1cccc(Cl)c1` [Compound 96a, (S)-2-(1-((6-amino-5-((5-fluoropyridin-2-yl)ethynyl)pyrimidin-4-yl)amino)ethyl)-3-(3-chlorophenyl)-6-fluoroquinazolin-4(3H)-one], for which the IC50 was < 100 nM on PI3Kδ, > 1 µM on PI3Kα (bound given in uM), > 1 µM at PI3Kβ (bound given in uM) and > 1 µM on PI3Kγ (bound given in uM).
As to `CC[C@H](Nc1ncnc(N)c1C#Cc1cnccn1)c1nc2cccc(F)c2c(=O)n1-c1cc(F)cc(F)c1` [Compound 107a, (S)-2-(1-((6-amino-5-(pyrazin-2-ylethynyl)pyrimidin-4-yl)amino)propyl)-3-(3,5-difluorophenyl)-5-fluoroquinazolin-4(3H)-one], the IC50 was < 100 nM against PI3Kδ, > 1 µM at PI3Kα (bound given in uM), > 1 µM at PI3Kβ (bound given in uM) and > 1 µM against PI3Kγ (bound given in uM).
Regarding `CC(C)CS(=O)(=O)NCc1cccc(-n2c([C@H](C)Nc3ncnc(N)c3C#Cc3ccc(F)cn3)nc3cccc(Cl)c3c2=O)c1` [Compound 131a, (S)—N-(3-(2-(1-((6-amino-5-((5-fluoropyridin-2-yl)ethynyl)pyrimidin-4-yl)amino)ethyl)-5-chloro-4-oxoquinazolin-3(4H)-yl)benzyl)-2-methylpropane-1-sulfonamide], the IC50 at PI3Kδ was < 100 nM; against PI3Kα (bound given in uM) it was > 1 µM; against PI3Kβ (bound given in uM) it was > 1 µM; against PI3Kγ (bound given in uM), > 1 µM.
`C[C@H](Nc1ncnc(N)c1C#Cc1cnccn1)c1nc2cccc(Cl)c2c(=O)n1-c1cccc(C#N)c1` [Compound 93a, (S)-3-(2-(1-((6-amino-5-(pyrazin-2-ylethynyl)pyrimidin-4-yl)amino)ethyl)-5-chloro-4-oxoquinazolin-3(4H)-yl)benzonitrile]: the IC50 against PI3Kδ is < 100 nM; against PI3Kα (bound given in uM), > 1 µM; against PI3Kβ (bound given in uM), > 1 µM; against PI3Kγ (bound given in uM) it was > 1 µM.
Take `C[C@H](Nc1ncnc(N)c1C#Cc1ccc(F)cn1)c1nc2c(F)ccc(F)c2c(=O)n1-c1cc(F)cc(F)c1` [Compound 1a, (S)-2-(1-((6-amino-5-((5-fluoropyridin-2-yl)ethynyl)pyrimidin-4-yl)amino)ethyl)-3-(3,5-difluorophenyl)-5,8-difluoroquinazolin-4(3H)-one]: the IC50 at PI3Kδ was < 100 nM; on PI3Kα (bound given in uM) it was > 1 µM; on PI3Kβ (bound given in uM), > 1 µM; at PI3Kγ (bound given in uM) it was > 1 µM.
On to `C[C@H](Nc1ncnc(N)c1C#Cc1ccc(OC(F)(F)F)cc1)c1nc2cccc(Cl)c2c(=O)n1-c1cc(F)cc(F)c1` [Compound 26a, (S)-2-(1-(6-amino-5-((4-(trifluoromethoxy)phenyl)ethynyl)pyrimidin-4-ylamino)ethyl)-5-chloro-3-(3,5-difluorophenyl)quinazolin-4(3H)-one], for which the half-inhibitory concentration (IC50) against PI3Kα (bound given in uM), against PI3Kβ (bound given in uM) and at PI3Kγ (bound given in uM) was > 1 µM in each case.
Regarding `Cc1cccc2c(=O)n(-c3ccccc3)c([C@H](C)Nc3ncnc(N)c3C#Cc3ccc(F)cn3)nc12` [Compound 56a, (S)-2-(1-((6-amino-5-((5-fluoropyridin-2-yl)ethynyl)pyrimidin-4-yl)amino)ethyl)-8-methyl-3-phenylquinazolin-4(3H)-one], the IC50 was < 100 nM against PI3Kδ, > 1 µM against PI3Kα (bound given in uM), > 1 µM on PI3Kβ (bound given in uM) and > 1 µM against PI3Kγ (bound given in uM).
Take `C[C@H](Nc1ncnc(N)c1C#Cc1ccc(F)cn1)c1nc2ccc(F)cc2c(=O)n1-c1ccccc1` [Compound 90a, (S)-2-(1-((6-amino-5-((5-fluoropyridin-2-yl)ethynyl)pyrimidin-4-yl)amino)ethyl)-6-fluoro-3-phenylquinazolin-4(3H)-one]: the IC50 at PI3Kδ is < 100 nM; at PI3Kα (bound given in uM) it was > 1 µM; against PI3Kβ (bound given in uM) it was > 1 µM; against PI3Kγ (bound given in uM) it was > 1 µM.
On to `CC(C)OC(=O)c1ccc(C#Cc2c(N)ncnc2N[C@@H](C)c2nc3cccc(Cl)c3c(=O)n2-c2ccccc2)nc1` [Compound 137a, (S)-isopropyl 6-((4-amino-6-((1-(5-chloro-4-oxo-3-phenyl-3,4-dihydroquinazolin-2-yl)ethyl)amino)pyrimidin-5-yl)ethynyl)nicotinate], for which the IC50 at PI3Kα (bound given in uM), against PI3Kβ (bound given in uM) and against PI3Kγ (bound given in uM) was > 1 µM throughout.
Take `C[C@H](Nc1ncnc(N)c1C#Cc1cccnn1)c1nc2cccc(Cl)c2c(=O)n1-c1ccccc1` [Compound 14a, (S)-2-(1-(6-amino-5-(pyridazin-3-ylethynyl)pyrimidin-4-ylamino)ethyl)-5-chloro-3-phenylquinazolin-4(3H)-one]: the IC50 against PI3Kα (bound given in uM), against PI3Kβ (bound given in uM) and at PI3Kγ (bound given in uM) was > 1 µM in each case.
As for `C[C@H](Nc1ncnc(N)c1C#Cc1ccc(F)cn1)c1nc2cccc(Cl)c2c(=O)n1-c1cccc(C(C)(C)C)c1` [Compound 59a, (S)-2-(1-((6-amino-5-((5-fluoropyridin-2-yl)ethynyl)pyrimidin-4-yl)amino)ethyl)-3-(3-(tert-butyl)phenyl)-5-chloroquinazolin-4(3H)-one], the IC50 against PI3Kα (bound given in uM), at PI3Kβ (bound given in uM) and against PI3Kγ (bound given in uM) was > 1 µM throughout.
`C[C@H](Nc1ncnc(N)c1C#Cc1ccccn1)c1nc2cccc(Cl)c2c(=O)n1-c1cccc(C(N)=O)c1` [Compound 38a, (S)-3-(2-(1-(6-amino-5-(pyridin-2-ylethynyl)pyrimidin-4-ylamino)ethyl)-5-chloro-4-oxoquinazolin-3(4H)-yl)benzamide]: the IC50 is < 100 nM against PI3Kδ, < 0.1 µM against PI3Kβ (bound given in nM) and > 1 µM at PI3Kγ (bound given in uM).
With `Nc1ncnc(N2CCCC[C@H]2c2nc3cccc(Cl)c3c(=O)n2-c2ccccc2)c1C#Cc1ccccn1` [Compound 36a, (S)-2-(1-(6-amino-5-(pyridin-2-ylethynyl)pyrimidin-4-yl)piperidin-2-yl)-5-chloro-3-phenylquinazolin-4(3H)-one], the IC50 against PI3Kα (bound given in uM), against PI3Kβ (bound given in uM) and on PI3Kγ (bound given in uM) was > 1 µM in each case.
For the molecule `C[C@H](Nc1ncnc(N)c1C#Cc1cccc(CO)n1)c1nc2cccc(Cl)c2c(=O)n1-c1ccccc1` [Compound 155a, (S)-2-(1-((6-amino-5-((6-(hydroxymethyl)pyridin-2-yl)ethynyl)pyrimidin-4-yl)amino)ethyl)-5-chloro-3-phenylquinazolin-4(3H)-one], the half-inhibitory concentration (IC50) against PI3Kδ was < 100 nM; against PI3Kβ (bound given in nM), > 0.001 µM; at PI3Kγ (bound given in nM), < 0.1 µM.
For the molecule `C[C@H](Nc1ncnc(N)c1C#Cc1cn[nH]c1)c1nc2cccc(Cl)c2c(=O)n1-c1ccccc1` [Compound 49a, (S)-2-(1-(5-((1H-pyrazol-4-yl)ethynyl)-6-aminopyrimidin-4-ylamino)ethyl)-5-chloro-3-phenylquinazolin-4(3H)-one], the IC50 at PI3Kδ is < 100 nM; on PI3Kβ (bound given in nM), < 0.1 µM; at PI3Kγ (bound given in nM), < 0.1 µM.
For `C[C@H](Nc1ncnc(N)c1C#Cc1ccc(F)cn1)c1nc2cccc(Cl)c2c(=O)n1-c1cccc(S(C)(=O)=O)c1` [Compound 58a, (S)-2-(1-((6-amino-5-((5-fluoropyridin-2-yl)ethynyl)pyrimidin-4-yl)amino)ethyl)-5-chloro-3-(3-(methylsulfonyl)phenyl)quinazolin-4(3H)-one], the IC50 against PI3Kα (bound given in uM), at PI3Kβ (bound given in uM) and against PI3Kγ (bound given in uM) was > 1 µM in each case.
